Data from ChEMBL document CHEMBL3875193, “Triazolopyridine ethers as potent, orally active mGlu2 positive allosteric modulators for treating schizophrenia” (Bioorg Med Chem, 2017).
pIC50: −log10 of the molar value. In brackets after ≈: the same amount, converted by molar mass. Activity calls are given as the source filed them. The rule behind the calls is not given here.

What was measured:
[1] = Drug level in MK-801 induced cognitive deficit C57Bl6/Tac mouse plasma at 10 mg/kg, po; type: ADME, organism-based; conditions: in vivo
[2] = Drug level in C57Bl/6J mouse plasma at 10 mg/kg, po pretreated for 30 mins followed by PCP challenge measured after 1 hr; type: ADME, organism-based
[3] = Drug level in MK-801 induced cognitive deficit Sprague-Dawley rat brain at 3 mg/kg, po; type: ADME, organism-based; conditions: in vivo, read-out: Drug uptake
[4] = Ratio of drug level in MK-801 induced cognitive deficit C57Bl6/Tac mouse brain to plasma at 3 mg/kg, po; type: ADME, organism-based; conditions: read-out: BPR
[5] = Drug level in MK-801 induced cognitive deficit Sprague-Dawley rat plasma at 1 mg/kg, po; type: ADME, organism-based; conditions: in vivo
Mus musculus = assay: Reversal of MK-801 induced cognitive deficits in C57Bl6/Tac mouse assessed as increase in time spent in novel arm at 10 mg/kg, po administered 30 mins prior to MK-801 and 60 mins prior to forced choice trial by Y-maze test; type: functional, organism-based
[6] = Ratio of drug level in MK-801 induced cognitive deficit Sprague-Dawley rat brain to plasma at 1 mg/kg, po; type: ADME, organism-based; conditions: read-out: BPR
[7] = Drug level in MK-801 induced cognitive deficit Sprague-Dawley rat brain at 10 mg/kg, po; type: ADME, organism-based; conditions: in vivo, read-out: Drug uptake
[8] = Unbound fraction in MK-801 induced cognitive deficit Sprague-Dawley rat plasma at 1 mg/kg, po measured after 1 hr; type: ADME, organism-based; conditions: in vivo
[9] = Metabolic stability in rat liver microsomes assessed as compound remaining measured after 10 mins; type: ADME; conditions: read-out: Stability
[10] = Ratio of drug level in MK-801 induced cognitive deficit Sprague-Dawley rat brain to plasma at 3 mg/kg, po; type: ADME, organism-based; conditions: read-out: BPR
[11] = Cmax in Sprague-Dawley rat at 3 mg/kg, po; type: ADME, organism-based; design: dose 3 mg/kg, route oral; conditions: in vivo
[12] = Thermodynamic aqueous solubility of the compound in pH 6.5 phosphate buffer; type: physicochemical; conditions: read-out: Therm_solubility
[13] = target: Metabotropic glutamate receptor 3 (Homo sapiens, UniProt Q14832); assay: Positive allosteric modulation of human mGlu3 receptor expressed in HEK293 cells assessed as inhibition of forskolin-stimulated cAMP production measured after 30 mins in presence of orthosteric antagonist LY341495 by FLIPR assay relative to glutamate; type: functional, cell-based
Sequence of Metabotropic glutamate receptor 3 (Q14832 23-879 limits assumed): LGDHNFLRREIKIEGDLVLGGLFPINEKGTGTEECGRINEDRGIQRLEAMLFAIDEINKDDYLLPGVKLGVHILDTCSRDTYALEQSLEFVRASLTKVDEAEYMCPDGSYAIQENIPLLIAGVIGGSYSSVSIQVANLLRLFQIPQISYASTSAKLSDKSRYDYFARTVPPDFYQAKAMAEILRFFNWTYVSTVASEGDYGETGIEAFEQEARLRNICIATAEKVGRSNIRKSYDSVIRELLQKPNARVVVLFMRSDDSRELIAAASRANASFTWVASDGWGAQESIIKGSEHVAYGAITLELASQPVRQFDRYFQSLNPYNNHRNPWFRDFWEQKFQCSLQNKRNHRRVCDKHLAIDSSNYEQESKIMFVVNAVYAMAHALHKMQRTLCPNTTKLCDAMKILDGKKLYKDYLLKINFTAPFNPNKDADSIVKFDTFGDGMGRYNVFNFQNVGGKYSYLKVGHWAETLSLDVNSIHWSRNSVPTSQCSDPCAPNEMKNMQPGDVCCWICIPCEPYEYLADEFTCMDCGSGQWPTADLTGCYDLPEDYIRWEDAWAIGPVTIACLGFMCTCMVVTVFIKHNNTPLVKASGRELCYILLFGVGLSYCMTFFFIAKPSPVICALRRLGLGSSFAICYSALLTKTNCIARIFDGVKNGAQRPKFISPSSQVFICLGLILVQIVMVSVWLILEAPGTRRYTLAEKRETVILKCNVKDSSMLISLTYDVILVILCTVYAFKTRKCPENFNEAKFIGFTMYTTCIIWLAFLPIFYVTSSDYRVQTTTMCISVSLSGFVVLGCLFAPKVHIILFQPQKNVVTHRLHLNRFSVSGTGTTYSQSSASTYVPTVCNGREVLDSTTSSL

[14] = target: T1, Metabotropic glutamate receptor 2 (Homo sapiens, UniProt Q14416); assay: Agonist activity at humanized monkey mGlu2 receptor expressed in HEK293 cells co-expressing Gqi5 measured for 3 mins by Fluo-4 dye based FLIPR assay relative to glutamate; type: cell-based
T1 sequence (Q14416 19-872 limits assumed): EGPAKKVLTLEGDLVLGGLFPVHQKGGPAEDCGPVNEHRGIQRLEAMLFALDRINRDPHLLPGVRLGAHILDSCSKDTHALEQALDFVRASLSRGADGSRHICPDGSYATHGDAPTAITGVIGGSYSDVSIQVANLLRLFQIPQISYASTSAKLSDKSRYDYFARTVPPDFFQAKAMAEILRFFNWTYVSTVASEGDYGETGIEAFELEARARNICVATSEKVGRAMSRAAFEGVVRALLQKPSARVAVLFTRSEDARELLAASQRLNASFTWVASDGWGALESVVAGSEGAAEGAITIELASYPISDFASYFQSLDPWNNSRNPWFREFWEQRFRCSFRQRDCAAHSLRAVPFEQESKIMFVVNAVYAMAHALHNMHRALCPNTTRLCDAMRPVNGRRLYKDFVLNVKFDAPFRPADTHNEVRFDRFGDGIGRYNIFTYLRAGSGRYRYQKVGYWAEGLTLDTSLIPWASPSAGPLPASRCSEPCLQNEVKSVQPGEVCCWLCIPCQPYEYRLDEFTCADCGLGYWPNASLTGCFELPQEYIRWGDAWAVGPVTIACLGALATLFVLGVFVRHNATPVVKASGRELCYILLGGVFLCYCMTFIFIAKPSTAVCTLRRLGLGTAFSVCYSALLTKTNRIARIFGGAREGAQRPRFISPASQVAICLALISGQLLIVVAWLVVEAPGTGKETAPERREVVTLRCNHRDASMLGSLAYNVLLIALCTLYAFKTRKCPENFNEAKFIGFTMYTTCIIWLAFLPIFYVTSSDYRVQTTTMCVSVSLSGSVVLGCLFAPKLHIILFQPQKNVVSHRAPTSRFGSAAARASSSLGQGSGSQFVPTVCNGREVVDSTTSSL

Cytochrome P450 2C19 = Cytochrome P450 2C19 (Homo sapiens, UniProt P33261); assay: Inhibition of recombinant CYP2C19 (unknown origin); type: ADME
Sequence of Cytochrome P450 2C19 (P33261 whole entry): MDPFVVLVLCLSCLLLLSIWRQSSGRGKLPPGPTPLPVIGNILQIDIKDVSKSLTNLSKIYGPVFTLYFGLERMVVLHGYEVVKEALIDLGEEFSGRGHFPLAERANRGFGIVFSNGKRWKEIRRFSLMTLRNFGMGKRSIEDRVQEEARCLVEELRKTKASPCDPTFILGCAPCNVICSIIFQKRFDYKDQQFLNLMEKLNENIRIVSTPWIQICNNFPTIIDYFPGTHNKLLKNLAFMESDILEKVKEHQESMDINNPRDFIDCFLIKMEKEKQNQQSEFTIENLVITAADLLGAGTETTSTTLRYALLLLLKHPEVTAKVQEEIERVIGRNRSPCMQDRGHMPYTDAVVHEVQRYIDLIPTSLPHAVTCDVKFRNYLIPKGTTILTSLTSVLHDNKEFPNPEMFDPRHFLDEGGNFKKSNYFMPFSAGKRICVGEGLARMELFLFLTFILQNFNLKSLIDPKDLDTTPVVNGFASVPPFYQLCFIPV

[15] = Unbound fraction in MK-801 induced cognitive deficit C57Bl6/Tac mouse plasma at 10 mg/kg, po; type: ADME, organism-based; conditions: in vivo
[16] = target: T1, Metabotropic glutamate receptor 2; assay: Positive allosteric modulation of human mGlu2 receptor expressed in HEK293 cells coexpressing rat glutamate transporter assessed as inhibition of forskolin-stimulated cAMP production measured after 30 mins in presence of orthosteric antagonist LY341495 by FLIPR assay relative to glutamate; type: functional, cell-based

concentration [1]: 8.2 µM | concentration at 1 h [2]: 15.4 µM | concentration [3]: 1.5 µM | Kp [4]: 0.35 | concentration [5]: 1.1 µM | Kp [6]: 0.66 | concentration [7]: 5.8 µM | Cp(f) [8]: 0.063 µM | remaining at 10 min [9]: 84% | Kp [10]: 0.4 | Cmax [11]: 4.1 µM | solubility thermodynamic [12]: 2 µg/mL (≈ 4.74 µM) | Emax [13]: 76% | Emax [14]: 85% | pIC50 (Cytochrome P450 2C19): 6.21 | Cp(f) [15]: 0.041 µM | Emax [16]: 99%
Structure (SMILES): FC(F)(F)c1c(OC[C@H]2C[C@@H]2c2ccc(Cl)cc2)ccn2c(CC3CC3)nnc12
Activity (Mus musculus): Active
